# Laboratory results as given in patent publication US8598145B2, “Mitochondrially delivered anti-cancer compounds” (priority 2008, dated 2013).
# Experiments:
# [1] = test system: malignant cells; test: Apoptosis assays of FIG. 2 (Annexin V method); type: cell-based
# Description: Jurkat (A, G), HCT-116 (B), MCF-7 (C), MDA-MB-453 (D), and Meso-2 cells (E) were exposed to MitoVES at concentrations 1-50 μM (A-F), or to VES4TPP or α-TOS at 50 μM (B). At the times shown, the cells were harvested and assessed for apoptosis. […] Apoptosis data shown are derived from three independent experiments and are presented as mean values±S.D., the micrographs are representative images of at least three independent experiments.
# Toxicity of α-TOS, VE11S (“VES”), MitoVE3S, MitoVE5S, MitoVE7S, MitoVE9S, MitoVE11S (“MitoVES”), MitoVE11AE (“MitoVEAE”), MitoVE11F (“MitoVEF”), MitoVE11M (“MitoVEM”), and VES4TPP towards cancer cells was assessed on the basis of IC50, as detailed in Turanek, J., et al. ((2008). Liposomal formulation of vitamin E analogs as an efficient and selective anti-cancer treatment. Clin. Cancer Res. (submitted)). […]
# [2] = test system: EAhy926 cells; test: Angiogenesis in vitro: wound-healing and tube-forming (FIG. 7); type: cell-based, human
# Description: Wound-healing (A-F) and tube-forming activity (G, H) were assessed using the EC EAhy926 cells. For wound-healing activity, the cells were seeded in 35-mm Petri dishes and allowed to reach 100% confluency. The ‘injury’ was then performed, resulting in a denuded gap of 0.4-0.5 mm. Wound-healing activity in control cells and cells supplemented with 1, 5 or 10 μM MitoVES was assessed on the basis of proliferation and migration of cells into the denuded zone using a light microscope equipped with a grid and a digital camera (A). […] In panel C, representative images of injured control cells and cells treated with 10 μM MitoVES at different times are presented. […] EAhy926 cells were seeded at ˜10^5 per well in Matrigel-coated 24-well plates and allowed for 24 h to form tubes at the absence or presence of MitoVES. Complete capillaries connecting points of individual polygons (see General Materials and Methods) were counted per the field of 0.16 mm^2 and took as a measure of the tube-forming activity (F). […] At 20 h of treatment, the cells were retrieved from the Matrigel and assessed for apoptosis using the Annexin V binding method (H). Parental EAhy926 cells and their ρ^0 counterparts were seeded in Petri dishes at confluency, ‘injured’ as described above, and the wound-healing activity assessed in the absence or presence of 10 μM MitoVES (MVES) (I; see symbols above panel L). The healing rate was estimated from the slopes in panel I and plotted in […] (J). At 20 h, the cells were assessed for the level of apoptosis (K). Panel L documents tube-forming activity in Matrigel of the ρ^0 EAhy 926 cells in the absence or presence of 5 μM MitoVES. […]
# To assess the effect of α-TOS on the wound-healing activity of the EAhy926 cells, the cells were seeded in […] Petri dishes and allowed to reach complete confluence. […] Regrowth of cells (wound healing) in the presence of α-TOS or α-TEA was assessed by following the kinetics of narrowing the denuded gap in the microscope equipped with a grid in the eyepiece and healing expressed as the ‘rate of filling the gap’ as the rate of healing in μm/h. […]
smiles,measurement,setting,value
Cc1c(C)c2c(c(C)c1OC(=O)CCC(=O)[O-])CCC(C)(CCCCCCCCCCC[P+](c1ccccc1)(c1ccccc1)c1ccccc1)O2 (centres unmarked) [MitoVE11S],apoptosis in malignant versus normal equivalent cell types,"[1]; FIG. 2, exception dividing endothelial cells",causes apoptosis selectively in malignant cells
same,fold more apoptogenic / more active than α-TOS in cancer cells,[1]; relative to α-TOS,up to 50 fold
same,fold greater potency as antiangiogenic drug than α-TOS,[2]; relative to α-TOS,5 fold
same,concentration needed for comparable levels of effects on endothelial cells,[2]; same endothelial cell types,5 to 10 µM
same,angiogenesis in vitro,"[2]; wound-healing, tube-forming and apoptosis assays",inhibits angiogenesis in vitro
